Values joined by “and” are separate entries in the source; they are usually repeats but may differ in a detail not shown here. Equal values may be shown once.
Columns and labels:
PfcFRS = molecular target: T1, PfcFRS (Plasmodium falciparum, UniProt Q8I246); experiment: Surface plasmon resonance binding; conditions: Pf; SPR, 1:1 binding model; read-out: Kd (cFRS)
T1 sequence (Q8I246 1-575): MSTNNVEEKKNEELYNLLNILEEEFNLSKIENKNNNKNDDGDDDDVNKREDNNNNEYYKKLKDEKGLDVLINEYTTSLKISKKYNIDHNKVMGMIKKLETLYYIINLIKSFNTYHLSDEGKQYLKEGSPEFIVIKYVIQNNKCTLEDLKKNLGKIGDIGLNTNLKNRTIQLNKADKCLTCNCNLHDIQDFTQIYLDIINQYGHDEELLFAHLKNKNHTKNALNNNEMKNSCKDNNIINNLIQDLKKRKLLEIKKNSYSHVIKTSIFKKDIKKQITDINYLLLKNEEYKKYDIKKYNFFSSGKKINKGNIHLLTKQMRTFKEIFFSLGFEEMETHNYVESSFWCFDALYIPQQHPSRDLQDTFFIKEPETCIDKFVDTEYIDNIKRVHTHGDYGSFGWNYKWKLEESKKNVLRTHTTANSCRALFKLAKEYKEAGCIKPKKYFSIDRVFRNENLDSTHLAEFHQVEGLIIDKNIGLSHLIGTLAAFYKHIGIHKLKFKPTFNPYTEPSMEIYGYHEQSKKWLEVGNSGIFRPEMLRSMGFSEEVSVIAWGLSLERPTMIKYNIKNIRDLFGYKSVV
T1 sequence (Q8IIW2 1-623 partner): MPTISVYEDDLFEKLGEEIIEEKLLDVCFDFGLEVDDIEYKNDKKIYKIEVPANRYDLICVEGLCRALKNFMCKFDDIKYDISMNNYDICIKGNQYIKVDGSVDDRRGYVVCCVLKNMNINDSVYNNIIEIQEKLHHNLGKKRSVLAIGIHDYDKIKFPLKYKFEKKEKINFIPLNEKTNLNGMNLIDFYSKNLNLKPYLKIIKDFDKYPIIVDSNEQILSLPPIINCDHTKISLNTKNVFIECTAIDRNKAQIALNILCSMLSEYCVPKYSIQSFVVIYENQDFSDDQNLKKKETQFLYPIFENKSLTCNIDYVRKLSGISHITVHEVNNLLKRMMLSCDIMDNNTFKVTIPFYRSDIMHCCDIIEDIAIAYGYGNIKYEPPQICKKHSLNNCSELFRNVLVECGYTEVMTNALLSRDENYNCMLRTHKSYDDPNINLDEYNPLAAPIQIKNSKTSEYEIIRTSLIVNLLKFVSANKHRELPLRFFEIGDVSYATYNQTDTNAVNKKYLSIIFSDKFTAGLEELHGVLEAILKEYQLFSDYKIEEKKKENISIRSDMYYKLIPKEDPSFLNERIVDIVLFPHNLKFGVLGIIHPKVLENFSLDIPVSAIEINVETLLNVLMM
Description: (§1) These were carried out on a Biacore T200 instrument (GE Healthcare) at 25 °C. The binding experiments were performed in buffer 10 mM phosphate buffered saline (PBS), pH 7.4, containing 5% dimethyl sulfoxide (DMSO). The flow system was primed with the running buffer before the initiation of the experiment. Both PfcFRS and HscFRS were immobilized to Sensor Chip CM5 by standard amine coupling chemistry using N-hydroxysuccinimide (NHS) and ethyl(dimethylaminopropyl) carbodiimide (EDC) to an immobilization level of approximately 1500 RU. The binding experiments were carried out in a single cycle kinetics mode. BRD1389 was serially diluted in running buffer and injected at a flow rate of 60 μl min^−1 across both surfaces for 60 s and dissociations were set up for 120 s. The data analysis was done using Biacore evaluation T200 Evaluation software (GE Healthcare) and after applying the solvent correction, the data was fitted into the 1:1 binding evaluation method to determine the equilibrium dissociation constants (Kd).

HscFRS = HscFRS (Homo sapiens, UniProt Q9Y285); experiment: Surface plasmon resonance binding; conditions: Hs; SPR, 1:1 binding model; read-out: Kd (cFRS)
HscFRS, sequence (Q9NSD9 whole entry): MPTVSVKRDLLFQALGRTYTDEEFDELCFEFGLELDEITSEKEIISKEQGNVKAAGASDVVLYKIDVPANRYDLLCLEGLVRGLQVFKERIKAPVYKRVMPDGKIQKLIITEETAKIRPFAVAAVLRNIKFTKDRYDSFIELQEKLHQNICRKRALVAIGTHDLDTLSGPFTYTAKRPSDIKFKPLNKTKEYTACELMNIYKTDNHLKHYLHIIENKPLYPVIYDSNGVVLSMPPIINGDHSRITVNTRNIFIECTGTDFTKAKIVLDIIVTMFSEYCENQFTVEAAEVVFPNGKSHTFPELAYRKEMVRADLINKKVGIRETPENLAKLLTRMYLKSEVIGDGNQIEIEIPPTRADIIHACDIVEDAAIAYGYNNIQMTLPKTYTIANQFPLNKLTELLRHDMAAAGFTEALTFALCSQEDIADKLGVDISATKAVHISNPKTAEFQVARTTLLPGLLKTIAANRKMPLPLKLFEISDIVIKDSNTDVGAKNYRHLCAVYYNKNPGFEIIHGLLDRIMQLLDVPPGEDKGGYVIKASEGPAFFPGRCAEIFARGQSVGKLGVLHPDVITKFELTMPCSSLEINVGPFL
HscFRS, sequence (Q9Y285 whole entry): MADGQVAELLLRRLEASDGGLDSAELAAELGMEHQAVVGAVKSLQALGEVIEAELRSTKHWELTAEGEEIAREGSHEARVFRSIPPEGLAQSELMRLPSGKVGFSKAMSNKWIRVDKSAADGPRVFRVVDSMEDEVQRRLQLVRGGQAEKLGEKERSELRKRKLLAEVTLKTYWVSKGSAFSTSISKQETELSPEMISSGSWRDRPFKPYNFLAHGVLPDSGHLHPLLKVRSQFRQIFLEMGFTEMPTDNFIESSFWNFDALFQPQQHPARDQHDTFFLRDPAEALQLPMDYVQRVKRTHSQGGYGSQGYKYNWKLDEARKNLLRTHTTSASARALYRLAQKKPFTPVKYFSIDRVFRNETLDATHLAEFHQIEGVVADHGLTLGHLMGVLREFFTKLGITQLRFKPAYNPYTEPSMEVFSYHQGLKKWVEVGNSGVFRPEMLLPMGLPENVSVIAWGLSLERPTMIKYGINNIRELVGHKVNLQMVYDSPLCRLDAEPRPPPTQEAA
Description: as §1

[1] = test system: Plasmodium falciparum strain K1; experiment: microbe, parasite or virus in culture; assay type: cell-based
Description: The cultivation of P. falciparum was conducted according to Trager’s method with some modification. Precisely, parasites were kept in culture flasks with RPMI1640 medium supplemented with 10% human plasma and 2% fresh human erythrocytes and incubated at 37 °C with the gas condition of 5% CO2 and 5% O2. The parasitemia (percentage of infected erythrocytes to total erythrocytes) were kept within 0.25–10%. Culture medium was replaced, and fresh erythrocytes were supplied every 2–3 days. Drug susceptibility test was conducted according to Desjardins’s method[18] with some modification. […] […] The plates were kept at 37 °C with the gas condition of 5% CO2 and 5% O2 for 72 h and then parasite growth was quantified with Makler’s method to detect plasmdoial lactate dehydrogenase[19] with some modification. Precisely, culture plates were kept in freezer overnight and then thawed at 37 °C to disrupt the erythrocytes and parasite cells. In the new 96-well titer plates, 100 μl of enzyme reaction solution (110 mM Li-lactate, 0.5 mM acetylpyridine-adenine dinucleotide, 50 mM Tris (pH 7.5), 10 mM EDTA, 50 mM KCl, and 15 g l^−1 PEG6000) and 20 µl of freeze-thaw culture were mixed in each well and then kept at room temperature for 30 min. The detection solution was prepared by mixing equal volume of 2 mg ml^−1 nitro blue tetrazolium and 0.1 mg ml^−1 phenazine ethosulfate and 20 µl of the solution was added to each well.

COC[C@@H]1[C@H](c2ccc(C#Cc3ccccc3)cc2)[C@@H]2CN(C(=O)Nc3ccc(OC4CC4)cc3)C[C@@H](O)[C@@H](O)CN12 [BRD1389]
Kd (PfcFRS): 0.004 µM | Kd (HscFRS): 16 µM | % Parasite Growth ([1]; K1, 0.000976562 ug/mL): 92.8% | % Parasite Growth ([1]; K1, 0.00195312 ug/mL): 94.4% | % Parasite Growth ([1]; K1, 0.00390625 ug/mL): 90.7% | % Parasite Growth ([1]; K1, 0.0078125 ug/mL): 40.5% | % Parasite Growth ([1]; K1, 0.015625 ug/mL): 14.2% | % Parasite Growth ([1]; K1, 0.03125 ug/mL): 15.9% | % Parasite Growth ([1]; K1, 0.0625 ug/mL): 4.7% | % Parasite Growth ([1]; K1, 0.125 ug/mL): 2.9% | % Parasite Growth ([1]; K1, 0.25 ug/mL): 2.1% | % Parasite Growth ([1]; K1, 0.5 ug/mL): 2.6% | % Parasite Growth ([1]; K1, 1 ug/mL): 2.6% | IC50 ([1]; Plasmodium falciparum, K1): 0.00685 µg/mL and 12.1 nM | EC50 ([1]; Plasmodium falciparum, K1, 72 h): 0.012 µM

Reference: article PMC7803973, “Structural basis of malaria parasite phenylalanine tRNA-synthetase inhibition by bicyclic azetidines” (Nature Communications, 2021)
